Reference: paper PMC6749524, “Identification of New Antifungal Agents Targeting Chitin Synthesis by a Chemical-Genetic Method” (Molecules, 2019)
Where two headings read alike, the source gives them in different places.

Experiments:
[1] = system: fks1∆ (fks1::KanMX in BY4741); experiment: MIC in compound library screening assay, fks1∆ yeast; assay type: cell-based, S. cerevisiae
Method: (§1) The compound library is a combination of synthetic compounds from Enamine (Kyiv, Ukraine) and Life Chemicals Inc. (Burlington, ON, Canada) and natural products from the Institute of Medicinal Biotechnology. We used WT, chs3∆, and fks1∆ yeast strains to screen new antifungal agents. The screening assays were performed in 96-well plates in a final volume of 200 μL. Fresh yeast cells (OD600 = 0.8) were diluted to 10^5 CFU/mL in YPD medium. We added 198 μL of diluted culture and 2 μL of compounds into each well, and the final concentration of compounds was 100 μg/mL with 1% DMSO. The yeast cells were incubated at 30 °C for 24 hours to assess the growth. For the compounds that inhibited the growth of all three yeast strains, they were serially diluted to determine the minimal inhibit concentration (MIC) with the same method. MIC endpoints were defined as the lowest concentration of drugs that cause a 90% decrease in growth compared to the drug-free control (MIC90).

C. albicans = experiment: Growth curve assay (OD600 over time); assay type: cell-based, Candida albicans; settings: 50 μg/mL and 100 μg/mL, p < 0.05
Method: (§2) Fresh cell cultures of WT yeast S. cerevisiae and Candida albicans ATCC10231 (OD600 = 0.8) were diluted in YPD medium (OD600 = 0.05). Then, IMB-D10 and IMB-F4 were added at concentrations ranging from 12.5 to 100 μg/mL. The cells were collected at different time points, and OD600 was measured with Multi-label Reader. Three experiments were performed independently, and the mean ± SD was calculated.

WT yeast cells (BY4741) = experiment: Growth curve assay (OD600 over time); assay type: cell-based, S. cerevisiae
Method: as §2

[2] = system: chs3∆ (chs3::KanMX in BY4741); experiment: MIC in compound library screening assay, chs3∆ yeast; assay type: cell-based, S. cerevisiae
Method: as §1

WT yeast cells = experiment: Cell division morphology, light microscopy; assay type: cell-based, S. cerevisiae; settings: treatment for 5 hours at 30 °C (IMB-D10 25 μg/mL)
Method: (§3) WT S. cerevisiae and C. albicans ATCC10231 were grown to 10^5 CFU/mL in YPD medium and then treated with IMB-D10 (12.5 or 25 μg/mL), IMB-F4 (12.5 or 25 μg/mL), or 0.25% DMSO for 3 and 5 hours at 30 ℃. Cells were collected by centrifugation at 1500 g for 5 min and resuspended in PBS. Some cells were examined using 100 × / 1.25 oil immersion objective (DM2500, Leica) and analyzed by Leica las. Some cells were stained with 100 μg/mL Calcofluor White M2R (CFW, Sigma-Aldrich, St. Louis, MO, USA for 3 min and washed three times with water. Then, the cells were examined under the UV light for fluorescent signals.

C. albicans ATCC10231 = experiment: Growth inhibition, broth microdilution MIC; assay type: cell-based, Candida albicans
Method: (§4) The experiments were carried out using a broth microdilution protocol modified from the Clinical and Laboratory Standards Institute M-27A methods. WT S. cerevisiae and C. albicans were grown to mid-log phase in YPD medium. The cells were collected by centrifugation at 1500 g for 5 min and diluted with RPMI 1640 medium to the density of 1 × 10^4 CFU/mL. Then, the samples with various concentrations of compounds were dispensed at 0.2 mL/well in sterile 96-well microplates. The final concentrations of compounds ranged from 3.125 to 100 μg/mL with serial two-fold dilution. After incubation at 30 °C (S. cerevisiae) or 35 °C (C. albicans) for 24 hours, the minimal inhibitory concentration (MIC) was determined by measuring the optical density of the wells with cell cultures. The antifungal agent caspofungin was used as a positive control. All tests were performed in triplicate.

[3] = system: WT S. cerevisiae strain BY4741; experiment: MIC in compound library screening assay, WT yeast; assay type: cell-based; settings: WT BY4741, YPD, 30 °C, 24 hours, MIC90
Method: as §1

Mycobacterium smegmatis = experiment: Growth inhibition of bacteria; assay type: cell-based; settings: at 100 μg/mL
[4] = system: budding yeast S. cerevisiae; experiment: Growth inhibition, broth microdilution MIC; assay type: cell-based
Method: as §4

chitin in WT yeast cells = experiment: CFW staining of chitin, fluorescence microscopy; assay type: cell-based, S. cerevisiae; settings: 12.5 or 25 μg/mL, 3 or 5 hours, vs DMSO control
Method: as §3

budding yeast = experiment: MIC of CFW in the presence of compounds, checkerboard assay; assay type: cell-based, S. cerevisiae
Method: Fresh cell cultures of WT S. cerevisiae and C. albicans ATCC10231 (OD600 = 0.8) were diluted to 10^4 CFU/mL in YPD medium. The in vitro synergistic and antagonistic effects of compounds were determined using checkerboard assay. MIC endpoints were defined as the lowest concentration of drugs, causing 80% decrease in viability compared to the drug-free control (MIC80). The calculation and interpretation of the fractional inhibitory concentration index (FICI) were carried out by referring to the document standards. FICI = (MIC of drug A in combination) / (MIC of drug A alone) + (MIC of drug B in combination) / (MIC of drug B alone). FIC ≤0.5 was considered as a synergistic effect, and >2 was considered as antagonism.

Molecule | MIC ([1]; Saccharomyces cerevisiae, 24 h, read-out: MIC, fks1∆) [µg/mL] | growth of C. albicans over time (C. albicans) | growth of yeast cells over time (OD) (WT yeast cells (BY4741)) | MIC ([2]; Saccharomyces cerevisiae, 24 h, read-out: MIC, chs3∆, chs3∆ mutant, YPD, 30 °C, 24 hours, MIC90) [µg/mL] | cell division / cell separation morphology (WT yeast cells) | MIC (C. albicans ATCC10231; Candida albicans, read-out: MIC) [µg/mL] | MIC ([3]; Saccharomyces cerevisiae, read-out: MIC, WT) [µg/mL] | growth inhibition (Mycobacterium smegmatis) | cell growth inhibition ([4]; S. cerevisiae, at 100 μg/mL) | CFW fluorescent signal around the cell wall and at the primary septum (chitin in WT yeast cells) | resistance to CFW (budding yeast; yeast cells treated with 25 and 50 μg/mL IMB-F4) | MIC, fks1∆ ([1]; fks1∆ mutant, YPD, 30 °C, 24 hours, MIC90) [µg/mL] | MIC, chs3∆ ([2]; chs3∆ mutant, YPD, 30 °C, 24 hours, MIC90) [µg/mL] | MIC (C. albicans ATCC10231) [µg/mL] | MIC, WT [3] [µg/mL] | MIC ([4]; budding yeast S. cerevisiae) [µg/mL] | increase of the MIC of CFW (budding yeast; budding yeast, presence of 12.5 μg/mL IMB-D10)
COc1cc(OC)cc(C(=O)N(CCn2ccnc2)c2nc3ccc(OC)cc3s2)c1 [IMB-F4, N-(2-(1H-imidazol-1-yl)ethyl)-3,5-dimethoxy-N-(6-methoxybenzo[d]thiazol-2-yl)benzamide] | 50 | growth inhibition was observed after incubation for 6 hours | dose-dependent slow growth | > 100 | normal cell separation | > 100 | > 100 | did not inhibit the growth | did not inhibit cell growth | weaker fluorescent signal | increased resistance to CFW | – | – | – | – | – | –
N-(2-(diethylamino) ethyl)-N-(7-hydroxy-4-methoxybenzo[d]thiazol -2-yl)-2-oxo-2H-chromene-3-carboxamide [IMB-D10] | – | reduced after 4 hours incubation | dose-dependent slow growth | – | some yeast cells failed to divide | – | – | did not inhibit the growth | – | weaker fluorescent signal | – | 25 | 100 | 100 | 50 | 50 | eight-fold increase
